We go through 9 molecules from ChEMBL document CHEMBL4229327, “Chemical Approaches to Modulating Complement-Mediated Diseases” (J Med Chem, 2018).

Experiment [1] has as its target T1, Mannan-binding lectin serine protease 1 (Homo sapiens, UniProt P48740).
T1 sequence (P48740 whole entry): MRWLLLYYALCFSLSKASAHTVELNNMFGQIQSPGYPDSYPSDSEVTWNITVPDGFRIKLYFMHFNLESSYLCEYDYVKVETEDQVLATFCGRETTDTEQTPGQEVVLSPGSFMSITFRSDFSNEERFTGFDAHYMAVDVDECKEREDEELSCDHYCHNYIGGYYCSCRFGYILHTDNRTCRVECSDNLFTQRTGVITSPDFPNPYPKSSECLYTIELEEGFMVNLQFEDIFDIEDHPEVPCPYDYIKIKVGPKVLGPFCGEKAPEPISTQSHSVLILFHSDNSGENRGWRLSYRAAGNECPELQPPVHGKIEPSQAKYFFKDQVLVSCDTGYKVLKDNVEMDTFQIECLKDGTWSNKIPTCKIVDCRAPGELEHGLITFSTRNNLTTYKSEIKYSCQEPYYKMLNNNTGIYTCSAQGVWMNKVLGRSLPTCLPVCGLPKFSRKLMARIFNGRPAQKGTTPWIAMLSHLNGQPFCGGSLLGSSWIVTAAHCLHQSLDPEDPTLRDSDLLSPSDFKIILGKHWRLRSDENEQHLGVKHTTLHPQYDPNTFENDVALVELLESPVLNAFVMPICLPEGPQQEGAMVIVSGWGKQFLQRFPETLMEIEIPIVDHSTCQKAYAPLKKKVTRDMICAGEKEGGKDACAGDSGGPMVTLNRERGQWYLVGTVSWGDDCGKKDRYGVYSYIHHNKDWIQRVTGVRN
Nature of the experiment: Inhibition of MASP1 (unknown origin)-induced lectin pathway by ELISA. (ELISA stands for enzyme-linked immunosorbent assay.)

For experiment [2], the target named is T1, Mannan-binding lectin serine protease 1. Nature of the experiment: Inhibition of recombinant […] fragment of MASP-1 (unknown origin).
Experiment [3] has as its target T2, Complement C1s subcomponent (Homo sapiens, UniProt P09871).
T2 sequence (P09871 whole entry): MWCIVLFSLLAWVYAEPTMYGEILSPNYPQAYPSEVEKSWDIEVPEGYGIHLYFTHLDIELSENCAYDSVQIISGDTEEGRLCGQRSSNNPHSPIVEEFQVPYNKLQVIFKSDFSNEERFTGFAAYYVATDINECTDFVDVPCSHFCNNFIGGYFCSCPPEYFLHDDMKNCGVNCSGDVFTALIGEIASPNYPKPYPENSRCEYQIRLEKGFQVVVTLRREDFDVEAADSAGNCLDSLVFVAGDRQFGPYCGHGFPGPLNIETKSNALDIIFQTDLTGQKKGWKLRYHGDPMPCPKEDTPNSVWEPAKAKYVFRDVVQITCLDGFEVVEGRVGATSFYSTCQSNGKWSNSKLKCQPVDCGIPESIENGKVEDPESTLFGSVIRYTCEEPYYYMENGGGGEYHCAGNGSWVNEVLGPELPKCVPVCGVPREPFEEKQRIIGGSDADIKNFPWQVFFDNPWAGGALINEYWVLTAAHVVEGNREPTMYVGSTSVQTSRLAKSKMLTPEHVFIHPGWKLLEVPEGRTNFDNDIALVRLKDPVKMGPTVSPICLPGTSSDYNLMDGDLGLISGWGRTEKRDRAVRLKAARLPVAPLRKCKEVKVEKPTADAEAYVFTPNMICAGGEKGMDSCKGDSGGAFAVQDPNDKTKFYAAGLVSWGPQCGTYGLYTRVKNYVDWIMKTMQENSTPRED
Description: Inhibition of human plasma C1s using Cbz-Gly-Arg-S-Bzl as substrate preincubated for 10 mins followed by substrate addition and measured after 30 mins by DTNB reagent-based two-beam microtiter plate photometer.

Experiment [4] addresses T3, Complement C1r subcomponent (Homo sapiens, UniProt P00736).
T3 sequence (P00736 whole entry): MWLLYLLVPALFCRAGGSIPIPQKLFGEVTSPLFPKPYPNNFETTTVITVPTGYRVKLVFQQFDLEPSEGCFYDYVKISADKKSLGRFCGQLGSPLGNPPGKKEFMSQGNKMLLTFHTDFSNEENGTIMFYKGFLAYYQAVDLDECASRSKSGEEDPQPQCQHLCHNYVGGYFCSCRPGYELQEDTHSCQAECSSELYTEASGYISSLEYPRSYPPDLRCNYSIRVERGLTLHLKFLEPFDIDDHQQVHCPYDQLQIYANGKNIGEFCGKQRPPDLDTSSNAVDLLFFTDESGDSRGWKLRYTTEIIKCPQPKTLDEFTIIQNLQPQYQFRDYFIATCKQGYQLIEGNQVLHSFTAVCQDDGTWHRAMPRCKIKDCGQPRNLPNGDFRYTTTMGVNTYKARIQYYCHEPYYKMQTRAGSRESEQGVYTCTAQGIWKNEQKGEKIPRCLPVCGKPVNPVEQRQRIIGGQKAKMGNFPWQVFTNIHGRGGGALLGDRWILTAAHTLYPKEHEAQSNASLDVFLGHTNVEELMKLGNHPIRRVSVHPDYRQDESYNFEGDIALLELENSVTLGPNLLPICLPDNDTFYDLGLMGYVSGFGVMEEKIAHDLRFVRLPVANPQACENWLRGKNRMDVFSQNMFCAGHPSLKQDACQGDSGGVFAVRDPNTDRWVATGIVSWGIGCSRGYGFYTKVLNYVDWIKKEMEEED
Nature of the experiment: Inhibition of human plasma C1r using Cbz-Gly-Arg-S-Bzl as substrate preincubated for 10 mins followed by substrate addition and measured after 30 mins by DTNB reagent-based two-beam microtiter plate photometer.

For experiment [5], the target named is T4, Mannan-binding lectin serine protease 2 (Homo sapiens, UniProt O00187). Description: Inhibition of MASP-2 (unknown origin) using Z-L-LysSBzl hydrochloride as substrate preincubated for 1 hr followed by substrate addition.
The target in experiment [6] is T1, Mannan-binding lectin serine protease 1. Description: Inhibition of MASP-1 (unknown origin) using Z-L-LysSBzl hydrochloride as substrate preincubated for 1 hr followed by substrate addition.
Experiment [7] addresses T4, Mannan-binding lectin serine protease 2. Description: Inhibition of MASP-2-mediated C4 deposition in human serum after 1 hr by ELISA.
For experiment [8], the target named is T1, Mannan-binding lectin serine protease 1. Description: Inhibition of MASP-1-mediated C3 deposition in human serum after 30 mins by ELISA.
A short description of experiment [9]: Binding affinity to C1q (unknown origin) by SPR method. Also noted: species or system Homo sapiens. A general note: In SPR one partner is held on a chip, and binding of the other changes the refractive index at the surface.
Experiment [10] can be described thus: Inhibition of guinea pig C1q-mediated sheep RBC lysis. Also noted: species or system Cavia porcellus.
Experiment [11] in a line: Inhibition of chimpanzee serum C1q-mediated rabbit RBC lysis after 60 mins. Also noted: species or system Pan troglodytes.
The nature of experiment [12]: Inhibition of human plasma C1q-mediated rabbit RBC lysis after 60 mins.
Experiment [13] in a line: Inhibition of rat serum C1q-mediated rabbit RBC lysis after 60 mins.
Experiment [14] in a line: Inhibition of rhesus monkey serum C1q-mediated rabbit RBC lysis after 60 mins. Also on record: species or system Macaca mulatta.
Experiment [15] is described as follows: Inhibition of mouse serum C1q-mediated rabbit RBC lysis after 60 mins.
Experiment [16] in a line: Inhibition of rat serum alternative complement system-mediated lysis of guinea pig erythrocytes.
Experiment [17] can be described thus: Selectivity ratio of IC50 for rat serum alternative complement system-mediated lysis of guinea pig erythrocytes to IC50 for human serum C1s-mediated lysis of rabbit Ab-sensitized sheep erythrocytes after 60 mins.
Experiment [18] in a line: Inhibition of bovine trypsin esterolytic activity using Na-benzoyl-L-Arg-nitroanalide as substrate. Also noted: species or system Bos taurus.
Experiment [19] deals with T2, Complement C1s subcomponent. Description: Inhibition of C1s (unknown origin) using Cbz-Gly-Arg-S-Bzl as substrate preincubated with substrate for 15 mins followed by enzyme addition and measured after 5 mins.
Experiment [20] deals with T3, Complement C1r subcomponent. Nature of the experiment: Inhibition of human serum C1r using AAME as substrate after 30 mins.
Experiment [21] deals with T2, Complement C1s subcomponent. Nature of the experiment: Inhibition of human serum C1s using AGLME as substrate after 30 mins.

Bridge positions count the residues as written; N and C are the ends. Peptide text beside a SMILES is read from it.

T4 sequence (O00187 16-444 limits assumed): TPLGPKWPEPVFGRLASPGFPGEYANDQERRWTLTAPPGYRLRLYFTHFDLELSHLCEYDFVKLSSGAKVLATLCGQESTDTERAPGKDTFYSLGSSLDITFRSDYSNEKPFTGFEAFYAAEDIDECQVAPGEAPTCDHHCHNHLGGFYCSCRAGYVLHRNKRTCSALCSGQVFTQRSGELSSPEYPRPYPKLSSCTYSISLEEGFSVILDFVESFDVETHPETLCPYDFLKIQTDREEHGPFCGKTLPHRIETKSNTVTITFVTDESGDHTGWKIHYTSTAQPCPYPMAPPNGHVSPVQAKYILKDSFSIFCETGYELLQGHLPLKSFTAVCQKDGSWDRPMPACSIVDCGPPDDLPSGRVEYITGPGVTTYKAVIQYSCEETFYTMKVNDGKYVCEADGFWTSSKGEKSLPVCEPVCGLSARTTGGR
T4 sequence (O00187 445-686 limits assumed): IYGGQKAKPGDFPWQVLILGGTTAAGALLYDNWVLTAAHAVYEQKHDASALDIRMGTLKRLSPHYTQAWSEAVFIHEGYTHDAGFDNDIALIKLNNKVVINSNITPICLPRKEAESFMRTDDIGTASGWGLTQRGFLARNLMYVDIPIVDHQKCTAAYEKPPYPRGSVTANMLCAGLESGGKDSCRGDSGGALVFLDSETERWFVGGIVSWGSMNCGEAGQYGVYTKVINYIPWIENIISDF

For orientation: IC50 means the concentration needed to halve the response being measured. A word on the Ki: it is the equilibrium dissociation constant of an inhibitor or competing ligand from its target. In experiment [1], `CC(C)C[C@H](NC(=O)[C@H](CCCCN)NC(=O)[C@H](CCCNC(=N)N)NC(=O)[C@@H](NC(=O)[C@H](CS)NC(=O)[C@H](Cc1ccccc1)NC(=O)[C@H](C)NC(=O)[C@H](CO)NC(=O)[C@H](CCCCN)NC(=O)CNC(=O)[C@H](CC(=O)O)NC(=O)[C@H](CO)NC(=O)CNC(=O)[C@H](CS)NC(=O)[C@H](CCCNC(=N)N)NC(=O)[C@H](CS)NC(=O)[C@@H](NC(=O)[C@H](CC(N)=O)NC(=O)[C@H](CS)NC(=O)[C@H](CCCCN)NC(=O)[C@H](CC(=O)O)NC(=O)[C@H](CCCCN)NC(=O)[C@H](Cc1ccccc1)NC(=O)[C@@H](NC(=O)[C@@H](NC(=O)CNC(=O)[C@@H]1CCCN1C(=O)[C@H](CCC(=O)O)NC(=O)[C@H](CS)NC(=O)[C@@H](NC(=O)[C@@H](N)C(C)C)[C@@H](C)O)[C@@H](C)O)[C@@H](C)O)[C@@H](C)O)[C@@H](C)O)C(=O)N[C@@H](CS)C(=O)N[C@@H](Cc1ccc(O)cc1)C(=O)N[C@@H](CCC(N)=O)C(=O)O` (H-VTCEPGTTFKDKCNTCRCGSDGKSAFCTRKLCYQ-OH) came in with an IC50 of 42 nM. Also, the Ki in [2] stood at 7 nM.
Turning to `CC(C)[C@@H](NC(=O)Cc1c(Cl)cccc1Cl)C(=O)N1CC=CC1C(=O)NCc1ccc(C(=N)N)s1` (stereo partly specified), the results for the IC50 in [3] and in [4] were 900 nM and 600 nM, respectively.
Turning to `CC[C@H](C)[C@H](NC(=O)CN)C(=O)N[C@@H](CS)C(=O)N[C@@H](CO)C(=O)N[C@@H](CCCNC(=N)N)C(=O)N[C@@H](CO)C(=O)N[C@@H](CC(C)C)C(=O)N1CCC[C@H]1C(=O)N1CCC[C@H]1C(=O)N[C@H](C(=O)N[C@@H](CS)C(=O)N[C@H](C(=O)N1CCC[C@H]1C(=O)N[C@@H](CC(=O)O)C(=O)O)[C@@H](C)CC)[C@@H](C)CC` (H-GICSRSLPPICIPD-OH), the Ki in experiment [5] came to 1030 nM; in experiment [6] it was 65 nM. Also, the IC50 in [7] worked out at 230 nM; in [8] it was 40 nM.
As a reminder, the Kd is the constant that tells how readily two partners part at equilibrium. Turning to `CC[C@H](C)[C@H](N)C(=O)N[C@@H](C)C(=O)N[C@@H](CC(C)C)C(=O)N[C@H](C(=O)N[C@@H](CC(C)C)C(=O)N[C@@H](CCC(=O)O)C(=O)N1CCC[C@H]1C(=O)N[C@H](C(=O)N[C@@H](CS)C(=O)N[C@@H](CS)C(=O)N[C@@H](CCC(N)=O)C(=O)N[C@@H](CCC(=O)O)C(=O)N[C@@H](CCCNC(=N)N)C(=O)N[C@@H](C)C(=O)N[C@@H](C)C(=O)O)[C@@H](C)CC)[C@@H](C)CC`, in [9], binding was put at a Kd of 33 nM.
As for `CC(=O)N[C@@H](C)C(=O)N[C@@H](CCC(=O)O)C(=O)N[C@@H](C)C(=O)N[C@@H](CCCCN)C(=O)N[C@@H](C)C(=O)N[C@@H](CCCCN)C(=O)N[C@@H](C)C(N)=O` (Ac-AEAKAKA-NH2), in experiment [10], the IC50 came to 166000 nM.
As for `CC(C)C[C@@H]1NC(=O)[C@H](CC(=O)O)NC(=O)[C@H](Cc2c[nH]cn2)NC(=O)[C@H](CCCNC(=N)N)NC(=O)[C@@H]2CCCN2C(=O)CNC(=O)[C@H](Cc2ccccc2)NC(=O)[C@@H]2CCCN2C(=O)CNC(=O)[C@H](CCC(=O)O)NC(=O)[C@@H](N)CSSC[C@@H](C(=O)N[C@@H](Cc2c[nH]c3ccccc23)C(=O)O)NC(=O)[C@H](Cc2ccccc2)NC(=O)[C@H]([C@@H](C)O)NC1=O` (H-CEGPFGPRHDLTFCW-OH; disulfide 1-14), the IC50 in experiment [11] was 2000 to 6000 nM; in experiment [12], 2000 nM; in experiment [13], 2000 to 6000 nM; in experiment [14] it was 2000 to 6000 nM; in experiment [15] it was 2000 to 6000 nM.
With `N=C(N)c1cc2ccc(OC(=O)c3cccs3)cc2s1`, the results for the IC50 in experiment [16] and in [18] were 330 nM and 326 nM, respectively. Besides, in experiment [17], the Ratio IC50 came out at 7.
For the molecule `CSc1sc(C(=N)N)cc1-c1nc(-c2cccc(NS(=O)(=O)c3ccc(F)cc3F)c2)cs1`, the Ki in [19] was determined as 30 nM.
On to `N=C(N)c1ccc2cc(OC(=O)c3ccc(N=C(N)N)cc3)ccc2c1` [NAFAMOSTAT], for which the IC50 was determined as 800 nM in experiment [20] and 29 nM in [21].
